Assay [1] concerns HepG2. Put plainly: Antiproliferative activity against human HepG2 cells assessed as inhibition of cell growth by first round CCK8 assay. It counts as functional, cell-based.
The subject of assay [2] is HT-29. Nature of the assay: Antiproliferative activity against human HT-29 cells assessed as inhibition of cell growth by first round CCK8 assay. Type of assay: functional, cell-based.
The test system of assay [3] is A549. Nature of the assay: Antiproliferative activity against human A549 cells assessed as inhibition of cell growth by first round CCK8 assay. It counts as functional, cell-based.
Assay [4] deals with Tubulin. Put plainly: Inhibition of tubulin polymerization (unknown origin). Type of assay: protein-complex assay, Homo sapiens.
Assay [5] relates to HT-29. Nature of the assay: Antiproliferative activity against human HT-29 cells assessed as inhibition of cell growth by secondary round CCK8 assay.
Assay [6] concerns A549. Nature of the assay: Antiproliferative activity against human A549 cells assessed as inhibition of cell growth by secondary round CCK8 assay. It counts as functional, cell-based.
Assay [7] concerns HepG2. Nature of the assay: Antiproliferative activity against human HepG2 cells assessed as inhibition of cell growth by secondary round CCK8 assay. It counts as functional, cell-based.

From ChEMBL document CHEMBL5032517, “Synthesis of the analogs of plocabulin and their preliminary structure-activity relationship study” (Bioorg Med Chem Lett, 2021) come the findings set out here.

Consider `COC1=CC[C@@H]([C@@H](C)/C=C(C)/C=C\C=C/C(=O)N[C@H](C(=O)N/C=C\CCOC(N)=O)C(C)(C)C)OC1=O`, for which the IC50 in assay [1] was found to be 5.8 nM; in assay [2] it was 1.1 nM; in assay [3], 2.4 nM.

`COC1=CC[C@@H]([C@@H](C)/C=C(C)/C=C\C=C/C(=O)N[C@H](C(=O)N/C=C(/C)CCOC(N)=O)C(C)(C)C)OC1=O` yielded a half-maximal inhibitory concentration (IC50) in assay [4] of 16000 nM.

On to `C/C=C\CC(C/C=C\NC(=O)[C@@H](NC(=O)\C=C/C=C\C(C)=C\[C@H](C)[C@@H]1CC=C(OC)C(=O)O1)C(C)(C)C)OC(N)=O` (some centres not stated), for which the IC50 in assay [5] was < 0.2 nM; in assay [4] it was 3100 nM; in assay [1] it was 1.64 nM; in assay [2], 0.27 nM; in assay [3] it was 0.72 nM; in assay [6], < 0.2 nM. Moreover, in assay [7], the IC50 stood at 0.36 nM.

Turning to `CC(=O)O[C@H]1C(=O)[C@@]2(C)[C@H]([C@H](OC(=O)c3ccccc3)[C@]3(O)C[C@H](OC(=O)[C@H](O)[C@@H](NC(=O)c4ccccc4)c4ccccc4)C(C)=C1C3(C)C)[C@]1(OC(C)=O)CO[C@@H]1C[C@@H]2O` [PACLITAXEL], the half-maximal inhibitory concentration (IC50) in assay [7] is 10.1 nM.
